Results as given in PMC6751662, “Pharmacological and functional similarities of the human neuropeptide Y system in C. elegans challenges phylogenetic views on the FLP/NPR system” (Cell Communication and Signaling : CCS, 2019).
Like-named read-outs stand apart in the source and are kept apart here. Ends that are not written are not given here.

Key:
QRFPR = target: T1, QRFPR (Homo sapiens, UniProt Q96P65); assay: IP accumulation assay, endogenous Gαq coupling, QRFPR; format: cell-based; details: transiently transfected HEK293 cells, mean of at least three independent experiments
T1 construct: expressed in transfected cells; host or cells: HEK293, transient
T1 sequence (Q96P65 1-431): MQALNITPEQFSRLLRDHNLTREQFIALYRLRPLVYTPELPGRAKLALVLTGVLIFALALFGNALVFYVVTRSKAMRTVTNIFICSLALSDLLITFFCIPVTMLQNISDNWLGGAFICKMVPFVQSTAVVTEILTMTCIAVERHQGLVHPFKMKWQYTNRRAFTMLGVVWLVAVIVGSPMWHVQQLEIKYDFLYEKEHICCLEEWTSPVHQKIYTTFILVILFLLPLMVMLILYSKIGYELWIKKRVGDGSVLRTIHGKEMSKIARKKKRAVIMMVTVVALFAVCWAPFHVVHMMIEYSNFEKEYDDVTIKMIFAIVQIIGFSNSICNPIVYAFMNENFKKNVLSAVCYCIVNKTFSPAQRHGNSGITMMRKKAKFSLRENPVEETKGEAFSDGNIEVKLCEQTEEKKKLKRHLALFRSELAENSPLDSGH
Description: (§1) For measuring IP accumulation, HEK293 cells grown to 70–80% confluency in 6-well plates were transiently co-transfected using Metafectene Pro (2.5 μl/μg DNA; Biontex) with plasmids containing receptor and/or mock (empty pcDNA3.1) (for endogenous Gq-coupling) using 4 μg total DNA in a ratio of 3:1 following the manufacturer’s instructions. For testing Gα16- and GαΔ6qi4myr-coupling, plasmids encoding the corresponding Gα protein were co-transfected instead of mock. Gα16 is naturally promiscuous and stimulates the phospholipase C (PLC) pathway leading to IP production, while the exchange of the C-terminal four amino acids of Gαq for the corresponding residues of Gαi1 in the chimeric GαΔ6qi4myr confers the ability to couple to Gi/o protein-preferring receptors but still stimulate PLC, thus specifically redirecting downstream cellular signaling. 16 h post transfection, the cells were seeded into white 384-well plates at a density of 20,000 cells/well. Media was removed 24 h later and the cells were incubated with the indicated concentration of peptides for 1 h in HBSS + 20 mM LiCl. IP accumulation was measured with the HTRF-based IP-One Gq kit (Cisbio) on a microplate reader (Tecan Spark).
(§2) For in vitro activation, data is presented as mean ± SEM of at least three independent experiments conducted in technical triplicate. […] For the C. elegans NPRs, we considered the strongest response elicited by any of the peptides downstream of a particular receptor as the receptor’s maximal signal. This may or may not be the biological maximum that can be reached by the ‘true’ endogenous agonist. For the human receptors, the response to the established endogenous agonist reflected the maximal signal.

NPR-1 = target: T2, NPR-1 (Caenorhabditis elegans, UniProt Q18534); assay: cAMP reporter gene assay, Gi/o (inhibition of forskolin-induced cAMP), NPR-1; format: cell-based, C. elegans; parameters: host or cells: HEK293; details: for cAMP, x-fold of forskolin (mean), NPR-1 / Gi (Gs) [x-fold of forskolin], NPR-1, mean: inhibition of cAMP production induced by 1 µM forskolin (set to 1.00), transiently transfected HEK293 cells, mean of at least three independent experiments; for cAMP, x-fold of forskolin (mean), NPR-1: lower = higher Gi/o activity; for Emax: HEK293, read-out: Emax ± SEM [%]
T2 sequence (Q18534 1-457): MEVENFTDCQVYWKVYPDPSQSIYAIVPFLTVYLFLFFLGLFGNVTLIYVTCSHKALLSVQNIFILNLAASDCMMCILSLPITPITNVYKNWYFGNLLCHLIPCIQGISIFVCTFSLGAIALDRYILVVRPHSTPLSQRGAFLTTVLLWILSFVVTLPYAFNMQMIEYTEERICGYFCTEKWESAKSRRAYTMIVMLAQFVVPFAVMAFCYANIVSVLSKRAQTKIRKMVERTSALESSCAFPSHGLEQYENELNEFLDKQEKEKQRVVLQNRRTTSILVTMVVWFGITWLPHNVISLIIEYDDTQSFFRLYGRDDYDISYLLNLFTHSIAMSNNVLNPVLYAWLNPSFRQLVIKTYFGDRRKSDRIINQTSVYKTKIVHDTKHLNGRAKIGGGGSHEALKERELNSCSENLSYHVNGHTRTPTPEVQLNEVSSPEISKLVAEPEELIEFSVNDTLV
Description: (§3) Activation of Gs and Gi/o was assessed with a cAMP reporter gene assay. HEK293 cells grown to 70–80% confluency in 6-well plates were transiently co-transfected with vectors encoding the receptor and the cAMP reporter gene plasmid pGL4.29 [luc2P/CRE/Hygro] (Promega; 4 μg total, 1:1 ratio) using Metafectene Pro (3 μl/μg DNA; Biontex) following the manufacturer’s instructions. 16 h post transfection, the cells were seeded into white 384-well plates at a density of 20,000 cells/well. On the next day, the medium was removed and the cells were stimulated with 20 μl of peptide solution (or forskolin as positive control) in serum-free DMEM for 4 h. For measuring Gi/o activity, the peptide solutions additionally contained 1 μM forskolin to elevate cellular cAMP levels. After incubation, the luciferase substrate OneGlo in lysis buffer (Promega) was added and the luminescence was measured in a microplate reader Tecan Spark (Tecan). Data were analyzed with GraphPad Prism 5.03 and are shown as fold of basal or fold of forskolin in case of Gαi/o activity.
as §2

Y4R = target: T3, Y4R (Homo sapiens, UniProt P50391); assay: IP accumulation assay, chimeric GαΔ6qi4myr, Y4R; format: cell-based; details: chimeric GαΔ6qi4myr co-transfected, transiently transfected HEK293 cells, mean of at least three independent experiments
T3 construct: expressed in transfected cells; host or cells: HEK293, transient
Description: as §1, §2

NPR-3 = target: T4, NPR-3 (Caenorhabditis elegans, UniProt P90745); assay: cAMP reporter gene assay, Gi/o (inhibition of forskolin-induced cAMP), NPR-3; format: cell-based, C. elegans; details: for cAMP, x-fold of forskolin (mean), NPR-3: 1 µM forskolin set to 1.00; for cAMP, x-fold of forskolin (mean), NPR-3 / Gi (Gs) [x-fold of forskolin], NPR-3, mean: transiently transfected HEK293 cells, mean of at least three independent experiments; for Emax: HEK293, read-out: Emax ± SEM [%]; for Gi (Gs) [x-fold of forskolin], NPR-3, mean: inhibition of cAMP production induced by 1 µM forskolin (set to 1.00)
T4 construct: expressed in transfected cells; host or cells: HEK293
T4 sequence (P90745 1-376): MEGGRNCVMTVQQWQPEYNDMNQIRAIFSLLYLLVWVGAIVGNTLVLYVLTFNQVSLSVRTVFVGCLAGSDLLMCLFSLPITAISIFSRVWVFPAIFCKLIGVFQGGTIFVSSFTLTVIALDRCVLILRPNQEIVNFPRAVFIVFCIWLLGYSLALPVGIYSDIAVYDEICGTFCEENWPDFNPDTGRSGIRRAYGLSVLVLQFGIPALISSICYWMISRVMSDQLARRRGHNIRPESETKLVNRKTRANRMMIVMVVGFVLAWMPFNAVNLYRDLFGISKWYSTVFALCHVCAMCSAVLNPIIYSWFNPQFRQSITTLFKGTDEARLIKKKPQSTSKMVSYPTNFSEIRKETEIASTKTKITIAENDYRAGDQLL
Description: as §3, §2

T3 sequence (P50391 whole entry): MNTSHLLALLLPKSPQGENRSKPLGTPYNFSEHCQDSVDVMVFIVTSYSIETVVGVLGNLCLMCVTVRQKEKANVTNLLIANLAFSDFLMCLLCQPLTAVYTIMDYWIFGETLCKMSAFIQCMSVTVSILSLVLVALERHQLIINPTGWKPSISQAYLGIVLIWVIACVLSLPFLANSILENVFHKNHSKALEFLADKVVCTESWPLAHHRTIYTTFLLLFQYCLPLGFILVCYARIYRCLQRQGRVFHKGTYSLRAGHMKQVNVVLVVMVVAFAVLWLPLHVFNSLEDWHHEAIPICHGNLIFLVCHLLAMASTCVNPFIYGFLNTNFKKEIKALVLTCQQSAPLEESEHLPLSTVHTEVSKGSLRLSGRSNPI

IP accumulation, x-fold of basal (mean), QRFPR# (QRFPR; 0.1 µM peptide) | IP accumulation, x-fold of basal (mean), QRFPR# (QRFPR; 10 µM peptide) | cAMP, x-fold of forskolin (mean), NPR-1 (NPR-1; 0.1 µM peptide) | cAMP, x-fold of forskolin (mean), NPR-1 (NPR-1; 10 µM peptide) | IP accumulation, x-fold of basal (mean), Y4R (Y4R; 0.1 µM peptide) | IP accumulation, x-fold of basal (mean), Y4R (Y4R; 10 µM peptide) | cAMP, x-fold of forskolin (mean), NPR-3 (NPR-3; 0.1 µM peptide) | cAMP, x-fold of forskolin (mean), NPR-3 (NPR-3; 10 µM peptide) | Substance | further results
22.77 x-fold of basal | 24.26 x-fold of basal | 1.17 x-fold of forskolin | 0.84 x-fold of forskolin | 1.03 x-fold of basal | 1.42 x-fold of basal | 0.90 x-fold of forskolin | 0.97 x-fold of forskolin | TSGPLGNLAEELNGYSRKKGGFSFRF-NH2 [QRFP26, human pyroglutamylated RFamide peptide, 26 residues, reference compound] | 
0.87 x-fold of basal | 0.95 x-fold of basal | 0.91 x-fold of forskolin | 0.71 x-fold of forskolin |  |  | 0.84 x-fold of forskolin | 1.15 x-fold of forskolin | EASAFGDIIGELKGKGLGGRMRF-NH2 [FLP-27, NPY-like C. elegans FLP with C-terminal RxRF/Ya signature] | 
 |  |  |  |  |  |  |  | GLGPRPLRF-NH2 [FLP-21] | EC50 (NPR-1): 0.97 nM; Emax (NPR-1; SEM): -0.97 ± 0.15%; Emax (NPR-3; SEM): -0.59 ± 0.26%
0.59 x-fold of basal | 0.63 x-fold of basal | 1.14 x-fold of forskolin | 1.45 x-fold of forskolin | 0.80 x-fold of basal | 0.89 x-fold of basal | 1.00 x-fold of forskolin | 1.23 x-fold of forskolin | TPDINPAWYASRGIRPVGRF-NH2 [PrRP20, human prolactin-releasing peptide, 20 residues, reference compound] | 
0.91 x-fold of basal | 0.80 x-fold of basal | 0.72 x-fold of forskolin | 0.82 x-fold of forskolin |  |  | 0.77 x-fold of forskolin | 0.85 x-fold of forskolin | APLEGFEDMSGFLRTIDGIQKPRF-NH2 [FLP-33, NPY-like C. elegans FLP with C-terminal RxRF/Ya signature] | 
0.75 x-fold of basal | 0.75 x-fold of basal | 1.21 x-fold of forskolin | 1.49 x-fold of forskolin | 4.73 x-fold of basal | 4.61 x-fold of basal | 1.02 x-fold of forskolin | 1.25 x-fold of forskolin | APLEPVYPGDNATPEQMAQYAADLRRYINMLTRPRY-NH2 [PP, human pancreatic polypeptide, reference compound] | 
 |  |  |  |  |  |  |  | RGPSGPLRF-NH2 [FLP-15-2] | Emax (NPR-1; SEM): -0.92 ± 0.1%; EC50 (NPR-1; SEM): 25.1 nM; Emax (NPR-3; SEM): -0.8 ± 0.09%; EC50 (NPR-3; SEM): 50.1 nM
 |  |  |  |  |  |  |  | GLGPRPLAF-NH2 [[R8A]FLP-21, R8A control peptide of FLP-21, penultimate arginine exchanged for an alanine] | Gi (Gs) [x-fold of forskolin], NPR-1, mean (NPR-1; 0.1 µM peptide): 0.90 x-fold of forskolin; Gi (Gs) [x-fold of forskolin], NPR-1, mean (NPR-1; 10 µM peptide): 0.89 x-fold of forskolin; Gi (Gs) [x-fold of forskolin], NPR-3, mean (NPR-3; 0.1 µM peptide): 1.20 x-fold of forskolin; Gi (Gs) [x-fold of forskolin], NPR-3, mean (NPR-3; 10 µM peptide): 1.38 x-fold of forskolin
 |  |  |  |  |  |  |  | RGPSGPLAF-NH2 [[R8A]FLP-15-2] | Gi (Gs) [x-fold of forskolin], NPR-1, mean (NPR-1; 0.1 µM peptide): 0.84 x-fold of forskolin; Gi (Gs) [x-fold of forskolin], NPR-1, mean (NPR-1; 10 µM peptide): 0.85 x-fold of forskolin; Gi (Gs) [x-fold of forskolin], NPR-3, mean (NPR-3; 0.1 µM peptide): 0.97 x-fold of forskolin; Gi (Gs) [x-fold of forskolin], NPR-3, mean (NPR-3; 10 µM peptide): 0.88 x-fold of forskolin
 |  |  |  |  |  |  |  | SEVPGVLRF-NH2 [FLP-18-5] | Emax (NPR-1; SEM): -0.53 ± 0.2%

Substance | IP accumulation, x-fold of basal (mean), QRFPR# (QRFPR; 0.1 µM peptide) | IP accumulation, x-fold of basal (mean), QRFPR# (QRFPR; 10 µM peptide) | cAMP, x-fold of forskolin (mean), NPR-1 (NPR-1; 0.1 µM peptide) | cAMP, x-fold of forskolin (mean), NPR-1 (NPR-1; 10 µM peptide) | IP accumulation, x-fold of basal (mean), Y4R (Y4R; 0.1 µM peptide) | IP accumulation, x-fold of basal (mean), Y4R (Y4R; 10 µM peptide) | cAMP, x-fold of forskolin (mean), NPR-3 (NPR-3; 0.1 µM peptide) | cAMP, x-fold of forskolin (mean), NPR-3 (NPR-3; 10 µM peptide) | further results
PrRP31 [reference compound] | 0.58 x-fold of basal | 0.59 x-fold of basal | 1.30 x-fold of forskolin | 1.41 x-fold of forskolin | 0.84 x-fold of basal | 1.10 x-fold of basal | 1.10 x-fold of forskolin | 1.29 x-fold of forskolin | 
